Experiments:
[1] = target: T1, TDG (Homo sapiens, UniProt Q13569); experiment: standard (conventional) radioactive-based glycosylase assay; assay type: biochemical; details: tested at 100 nM, 10 μM and 1 mM
From the text: (§1) (A) Schematic of the molecular beacon assay for G:T repair.
(§2) This assay was optimized for a 96-well and 384-well format. Upon screening the ICCB known bioactive library (approximately 500 compounds) and the Johns Hopkins clinical compound library (approximately 1500 drugs), eighteen and fourteen candidates, respectively (Tables 1 and 2) were identified. Some of these compounds confirmed TDG inhibition in a standard, radioactive-based glycosylase assay (FIG. 19).

[2] = system: SK28 MEL melanoma cells; experiment: clonogenic assay; assay type: cell-based
Description: (§3) Tests were conducted in quadruplicate.

[3] = system: SK28 cells; experiment: MTS cell viability assay; assay type: cell-based; details: for cell viability of SK28 cells: concentration-dependent, quadruplicate
Description: as §3

[4] = system: LNCaP prostate cancer cells; experiment: MTS assay, prostate cancer cells; assay type: cell-based
Description: (§4) The TDG inhibitors, juglone and closantel, were tested for their ability to kill PC3 and LNCaP prostate cancer cells.

[5] = system: PC3 prostate cancer cells; experiment: MTS assay, prostate cancer cells; assay type: cell-based
Description: as §4

[6] = system: LNCaP prostate cancer cells; experiment: clonogenic assay, prostate cancer cells; assay type: cell-based
Description: as §4

[7] = system: PC3 prostate cancer cells; experiment: clonogenic assay, prostate cancer cells; assay type: cell-based
Description: as §4

[8] = system: SK28 melanoma cells; experiment: 5-carboxylcytosine (5caC) immunofluorescence staining of cells; assay type: cell-based; details: SK28 melanoma cells treated with compound
[9] = target: T1, TDG; experiment: TDG glycosylase activity in vitro (FIG. 24-25); assay type: biochemical
[10] = system: cancer cells; experiment: 5caC levels on chemotherapeutic treatment combined with TDG downregulation/inhibition; assay type: cell-based; details: for 5-carboxylcytosine levels, TDG inhibitor combined with temozolomide: combined with temozolomide treatment
From the text: Vincristin is an inhibitor of mitosis that arrests cells in metaphase; it is used as a chemotherapeutic agent for leukemia/lymphoma and melanoma.

[11] = target: T1, TDG; experiment: molecular beacon qPCR-based assay of TDG glycosylase activity (G:T / G:U repair), library screen; assay type: biochemical; details: 0, 5, 50 and 500 μg/ml
Description: as §1
In the folded hairpin substrate, the fluorescence of 6-FAM, used as fluorescent label at the 5′ end, is quenched by a dabsyl “black hole” moiety at the 3′ end. Upon removal of the mismatched T or U by TDG, and incision of the resulting apurinic/apyrimidinic (AP site) by APE, a short oligonucleotide containing 6-FAM was released. The resulting fluorescence was monitored by real-time qPCR over a 2-hour incubation period at 37° C., providing a sensitive and quantitative measurement of repair activity.
as §2

[12] = combined with TDG downregulation (C8)

T1 sequence (Q13569 whole entry): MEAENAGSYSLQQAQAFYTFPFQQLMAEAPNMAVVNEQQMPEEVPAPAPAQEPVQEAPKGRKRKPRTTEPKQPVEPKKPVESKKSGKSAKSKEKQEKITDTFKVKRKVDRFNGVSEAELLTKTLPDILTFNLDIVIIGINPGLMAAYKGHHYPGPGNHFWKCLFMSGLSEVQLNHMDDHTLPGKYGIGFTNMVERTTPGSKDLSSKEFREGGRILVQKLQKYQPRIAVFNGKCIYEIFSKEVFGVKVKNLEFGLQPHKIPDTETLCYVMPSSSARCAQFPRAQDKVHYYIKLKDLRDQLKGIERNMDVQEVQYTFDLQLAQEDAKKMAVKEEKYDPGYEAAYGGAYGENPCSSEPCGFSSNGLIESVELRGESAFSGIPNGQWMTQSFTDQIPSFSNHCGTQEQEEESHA

Structure (SMILES) | inhibition of TDG activity, conventional glycosylase assay [1] | relative potency in conventional glycosylase assay [1] | clonogenic capacity of SK28 MEL melanoma cells [2] | cell viability of SK28 cells [3] | proliferation of LNCaP cells, MTS assay [4] | proliferation of PC3 cells, MTS assay [5] | proliferation of LNCaP cells, clonogenic assay [6] | proliferation of PC3 cells, clonogenic assay [7] | 5caC staining in the nuclei of cells in culture [8] | inhibition of TDG glycosylase activity in vitro [9] | 5-carboxylcytosine levels, TDG inhibitor combined with temozolomide [10] | inhibition of TDG activity, molecular beacon assay for G:T repair [11] | SK28 cell viability, cisplatin combined with TDG downregulation [3, 12] | 5caC levels, vincristine combined with TDG downregulation [10, 12] | 5caC levels, vincristine alone ([10]; in the absence of TDG downregulation (pLKO))
C=CC1=C(C(=O)O)N2C(=O)[C@@H](NC(=O)/C(=N\OCC(=O)O)c3csc(N)n3)[C@H]2SC1 [Cefixime, (6R,7R)-7-{[2-(2-amino-1,3-thiazol-4-yl)-2-(carboxymethoxyimino)acetyl]amino}-3-ethenyl-8-oxo-5-thia-1-azabicyclo[4.2.0]oct-2-ene-2-carboxylic acid] | inhibition of TDG activity | more potent than compound 2, closantel | reduction of clonogenic capacity | reduce cell viability |  |  |  |  |  |  |  |  |  |  | 
Cc1cc(C(C#N)c2ccc(Cl)cc2)c(Cl)cc1NC(=O)c1cc(I)cc(I)c1O (stereo not drawn) [Closantel, 5′-Chloro-4′-(4-chloro-α-cyanobenzyl)-3,5-diiodo-2′-methylsalicylanilide, N-[5-Chloro-4-(4-chloro-α-cyanobenzyl)-2-methylphenyl]-2-hydroxy-3,5-diiodobenzamide] | inhibition of TDG activity |  | reduction of clonogenic capacity | reduce cell viability | stopped proliferation | stopped proliferation | stopped proliferation | stopped proliferation | increase 5caC staining | inhibition of TDG glycosylase activity in vitro | highly elevated |  |  |  | 
O=C1C=CC(=O)c2c(O)cccc21 [Juglone, 5-hydroxynaphthoquinone] |  |  | reduction of clonogenic capacity | reduce cell viability | stopped proliferation | stopped proliferation | stopped proliferation | stopped proliferation | increase 5caC staining | inhibition of TDG glycosylase activity in vitro | highly elevated | Dose dependent inhibition |  |  | 
N.N.[Cl][Pt][Cl] [cisplatin] |  |  |  |  |  |  |  |  |  |  |  |  | reduction of SK28 cell viability |  | 
CC[C@]1(O)C[C@H]2CN(CCc3c([nH]c4ccccc34)[C@@](C(=O)OC)(c3cc4c(cc3OC)N(C=O)[C@H]3[C@@](O)(C(=O)OC)[C@H](OC(C)=O)[C@]5(CC)C=CCN6CC[C@]43[C@@H]65)C2)C1 [vincristine] |  |  |  |  |  |  |  |  |  |  |  |  |  | further increased | increase of 5caC levels

— patent US11883413B2, “Inhibition of thymine DNA glycosylase in the treatment of cancer” (Institute For Cancer Research, priority 2013, dated 2024)
